Earlier results as cited in patent US20250369985A1, “METHOD FOR DETERMINING THE THERAPEUTIC REGIMEN FOR AN INDIVIDUAL AND ITS USE” (MOSAIQUES DIAGNOSTICS AND THERAPEUTICS AG, priority 2022, published 2025).
Like-named read-outs stand apart in the source and are kept apart here.

Test system: urinary proteins/peptides (71 biomarkers of CD71 classifier)

Cc1ccc([C@@H]2O[C@H](CO)[C@@H](O)[C@H](O)[C@H]2O)cc1Cc1ccc(-c2ccc(F)cc2)s1 [drug C]
f (fold-change of the abundance) (peptide 99900220 (Seq. ID No. 1)): 1
f (fold-change of the abundance) (peptide 99900467 (Seq. ID No. 2)): 1
f (fold-change of the abundance) (peptide 99901399 (Seq. ID No. 3)): 1
f (fold-change of the abundance) (peptide 99902592 (Seq. ID No. 4)): 1
f (fold-change of the abundance) (peptide 99903025 (Seq. ID No. 5)): 1
f (fold-change of the abundance) (peptide 99904405 (Seq. ID No. 6)): 1.22
f (fold-change of the abundance) (peptide 99904666 (Seq. ID No. 7)): 1
f (fold-change of the abundance) (peptide 99904862 (Seq. ID No. 8)): 1
f (fold-change of the abundance) (peptide 99905044 (Seq. ID No. 9)): 1
f (fold-change of the abundance) (peptide 99905259 (Seq. ID No. 10)): 1
f (fold-change of the abundance) (peptide 99905274 (Seq. ID No. 11)): 1.86
f (fold-change of the abundance) (peptide 99905379 (Seq. ID No. 12)): 1
f (fold-change of the abundance) (peptide 99905423 (Seq. ID No. 13)): 1
f (fold-change of the abundance) (peptide 99905509 (Seq. ID No. 14)): 1
f (fold-change of the abundance) (peptide 99905551 (Seq. ID No. 15)): 1
f (fold-change of the abundance) (peptide 99906176 (Seq. ID No. 16)): 1
f (fold-change of the abundance) (peptide 99907275 (Seq. ID No. 17)): 1
f (fold-change of the abundance) (peptide 99907807 (Seq. ID No. 18)): 1.84
f (fold-change of the abundance) (peptide 99908755 (Seq. ID No. 19)): 1
f (fold-change of the abundance) (peptide 99908795 (Seq. ID No. 20)): 1
f (fold-change of the abundance) (peptide 99908916 (Seq. ID No. 21)): 1
f (fold-change of the abundance) (peptide 99909059 (Seq. ID No. 22)): 1
f (fold-change of the abundance) (peptide 99910002 (Seq. ID No. 23)): 1
f (fold-change of the abundance) (peptide 99910032 (Seq. ID No. 24)): 1
f (fold-change of the abundance) (peptide 99910407 (Seq. ID No. 25)): 1
f (fold-change of the abundance) (peptide 99910483 (Seq. ID No. 26)): 1
f (fold-change of the abundance) (peptide 99910554 (Seq. ID No. 27)): 1
f (fold-change of the abundance) (peptide 99910883 (Seq. ID No. 28)): 1.71
f (fold-change of the abundance) (peptide 99911002 (Seq. ID No. 29)): 1
f (fold-change of the abundance) (peptide 99911193 (Seq. ID No. 30)): 1
f (fold-change of the abundance) (peptide 99911415 (Seq. ID No. 31)): 1
f (fold-change of the abundance) (peptide 99911559 (Seq. ID No. 32)): 1.33
f (fold-change of the abundance) (peptide 99911777 (Seq. ID No. 33)): 1
f (fold-change of the abundance) (peptide 99912101 (Seq. ID No. 34)): 1
f (fold-change of the abundance) (peptide 99912211 (Seq. ID No. 35)): 1
f (fold-change of the abundance) (peptide 99912366 (Seq. ID No. 36)): 1
f (fold-change of the abundance) (peptide 99912411 (Seq. ID No. 37)): 1
f (fold-change of the abundance) (peptide 99912661 (Seq. ID No. 38)): 1
f (fold-change of the abundance) (peptide 99913200 (Seq. ID No. 39)): 1
f (fold-change of the abundance) (peptide 99913322 (Seq. ID No. 40)): 1.86
f (fold-change of the abundance) (peptide 99913825 (Seq. ID No. 41)): 1
f (fold-change of the abundance) (peptide 99914211 (Seq. ID No. 42)): 1
f (fold-change of the abundance) (peptide 99914445 (Seq. ID No. 43)): 0.64
f (fold-change of the abundance) (peptide 99914876 (Seq. ID No. 44)): 1
f (fold-change of the abundance) (peptide 99914887 (Seq. ID No. 45)): 1
f (fold-change of the abundance) (peptide 99914893 (Seq. ID No. 46)): 1
f (fold-change of the abundance) (peptide 99914935 (Seq. ID No. 47)): 1.55
f (fold-change of the abundance) (peptide 99915015 (Seq. ID No. 48)): 1
f (fold-change of the abundance) (peptide 99915755 (Seq. ID No. 49)): 1
f (fold-change of the abundance) (peptide 99915778 (Seq. ID No. 50)): 1
f (fold-change of the abundance) (peptide 99915883 (Seq. ID No. 51)): 1
f (fold-change of the abundance) (peptide 99916170 (Seq. ID No. 52)): 1
f (fold-change of the abundance) (peptide 99916177 (Seq. ID No. 53)): 1
f (fold-change of the abundance) (peptide 99916611 (Seq. ID No. 54)): 0.79
f (fold-change of the abundance) (peptide 99916615 (Seq. ID No. 55)): 0.83
f (fold-change of the abundance) (peptide 99916966 (Seq. ID No. 56)): 1
f (fold-change of the abundance) (peptide 99917047 (Seq. ID No. 57)): 1
f (fold-change of the abundance) (peptide 99917221 (Seq. ID No. 58)): 1
f (fold-change of the abundance) (peptide 99917280 (Seq. ID No. 59)): 1
f (fold-change of the abundance) (peptide 99917288 (Seq. ID No. 60)): 1
f (fold-change of the abundance) (peptide 99917419 (Seq. ID No. 61)): 1
f (fold-change of the abundance) (peptide 99917505 (Seq. ID No. 62)): 1
f (fold-change of the abundance) (peptide 99917596 (Seq. ID No. 63)): 1
f (fold-change of the abundance) (peptide 99917626 (Seq. ID No. 64)): 1
f (fold-change of the abundance) (peptide 99917690 (Seq. ID No. 65)): 0.63
f (fold-change of the abundance) (peptide 99917825 (Seq. ID No. 66)): 2.01
f (fold-change of the abundance) (peptide 99917890 (Seq. ID No. 67)): 1
f (fold-change of the abundance) (peptide 99917947 (Seq. ID No. 68)): 1
f (fold-change of the abundance) (peptide 99918831 (Seq. ID No. 69)): 1
f (fold-change of the abundance) (peptide 99918906 (Seq. ID No. 70)): 1
f (fold-change of the abundance) (peptide 99918909 (Seq. ID No. 71)): 1
